Test results reported in patent publication US20070128217A1 (priority 2003, published 2007).

Columns and labels:
[1] = test system: control sera (pooled serum of ten healthy LUMC hospital workers; commercial negative donor pooled serum from the Dutch bloodbank); assay type: binding, human; set-up: Binding of Control serum LUMC to linear peptides / Binding of Control serum Blood-bank to linear peptides / Binding of Control serum LUMC to looped peptides / Binding of Control Serum Blood-Bank to Looped peptides / Binding of Control serum LUMC to linear peptides of the protein M of SARS-CoV Urbani / Binding of Control serum Blood-bank to linear peptides of the protein M of SARS-CoV Urbani / Binding of Control serum LUMC to looped peptides of the protein M of SARS-CoV Urbani / Binding of Control Serum Blood-Bank to Looped peptides of the protein M of SARS-CoV Urbani: unit not given here
[2] = test system: rabbit serum obtained by immunizing a rabbit with the SARS-CoV strain Frankfurt 1; assay type: binding; set-up: Binding of a rabbit serum to linear peptides / Binding of a rabbit serum to looped peptides / Rabbit serum linear peptides / Rabbit serum looped peptides / Binding of a rabbit serum to linear peptides of protein N of SARS-CoV Urbani (Rabbit serum linear peptides) / Binding of a rabbit serum to looped/cyclic peptides of protein N of SARS-CoV Urbani (Rabbit serum looped peptides): unit not given here
[3] = test system: antibodies in sera from SARS patients (sera 1a, 1b, 2, 6, 37, 62, London, SARS-yellow, SARS-green); assay type: binding, human; set-up: Binding of serum 6 to linear peptides of protein X1 of SARS-CoV Urbani / Binding of serum 37 to linear peptides of protein X1 of SARS-CoV Urbani / Binding of serum 6 to looped/cyclic peptide (PEPSCAN-ELISA) / Binding of serum 37 to looped/cyclic peptide (PEPSCAN-ELISA) / Binding of serum 37 to looped/cyclic peptides of protein X1 of SARS-CoV Urbani / Binding of serum 6 to linear peptides of protein X2 / Binding of serum 37 to linear peptides of protein X2 / Binding of serum 37 to looped/cyclic peptides of protein X2 of SARS-CoV Urbani / Binding of serum 6 to linear peptides of protein M of SARS-CoV Urbani / Binding of serum 37 to linear peptides of protein M of SARS-CoV Urbani / Binding of serum 6 to looped/cyclic peptides of protein M of SARS-CoV Urbani / Binding of serum 37 to looped/cyclic peptides of protein M of SARS-CoV Urbani / Binding of serum 6 to linear peptides of protein X3 of SARS-CoV Urbani / Binding of serum 37 to linear peptides of protein X3 of SARS-CoV Urbani / Binding of serum 37 to looped/cyclic peptides of protein X3 of SARS-CoV Urbani / Binding of serum 6 to linear peptides of protein X4 of SARS-CoV Urbani / Binding of serum 37 to linear peptides of protein X4 of SARS-CoV Urbani / Binding of serum 37 to looped/cyclic peptides of protein X4 of SARS-CoV Urbani / Binding of serum 6 to linear peptides of protein X5 of SARS-CoV Urbani / Binding of serum 37 to linear peptides of protein X5 of SARS-CoV Urbani / Binding of serum 37 to looped/cyclic peptides of protein X5 of SARS-CoV Urbani / Binding of serum 6 to linear peptides of protein N of SARS-CoV Urbani / Binding of serum 37 to linear peptides of protein N of SARS-CoV Urbani / Binding of serum 6 to linear peptide (PEPSCAN-ELISA) / Binding of serum 1a to looped/cyclic peptides of protein N of SARS-CoV Urbani / Binding of serum 1b to looped/cyclic peptides of protein N of SARS-CoV Urbani / Binding of serum 2 to looped/cyclic peptides of protein N of SARS-CoV Urbani / Binding of serum 6 to looped/cyclic peptides of protein N of SARS-CoV Urbani / Binding of serum 37 to looped/cyclic peptides of protein N of SARS-CoV Urbani / Binding of serum 62 to looped/cyclic peptides of protein N of SARS-CoV Urbani / Binding of serum London to looped/cyclic peptides of protein N of SARS-CoV Urbani / Binding of serum SARS-green to looped/cyclic peptides of protein N of SARS-CoV Urbani: unit not given here

Q: How did the “Binding of Control Serum Blood-Bank to Looped peptides” value [1] turn out when VQTCTPNVTINCQDP was run?
A: 0.6

Q: What about the “Binding of Control serum Blood-bank to linear peptides” value [1] of the same sequence?
A: 0.6

Q: What about the “Binding of Control serum LUMC to linear peptides” value [1] of the same sequence?
A: 0.5

Q: What about the “Binding of Control serum LUMC to looped peptides” value [1] of the same sequence?
A: 0.4

Q: And the “Rabbit serum linear peptides” value [2]?
A: 0.5

Q: And the “Rabbit serum looped peptides” value [2]?
A: 0.4

Q: And the “Binding of serum 1a to linear peptides of protein X5 of SARS-CoV Urbani” value [3]?
A: 0.7

Q: What about the “Binding of serum 1a to looped/cyclic peptides of protein X5 of SARS-CoV Urbani” value [3] of the same sequence?
A: 0.6

Q: And the “Binding of serum 1b to linear peptides of protein X5 of SARS-CoV Urbani” value [3]?
A: 0.8

Q: What about the “Binding of serum 1b to looped/cyclic peptides of protein X5 of SARS-CoV Urbani” value [3] of the same sequence?
A: 0.5

Q: And the “Binding of serum 2 to linear peptides of protein X5 of SARS-CoV Urbani” value [3]?
A: 0.7

Q: What about the “Binding of serum 2 to looped/cyclic peptides of protein X5 of SARS-CoV Urbani” value [3] of the same sequence?
A: 0.7

Q: What about the “Binding of serum 6 to linear peptides of protein X5 of SARS-CoV Urbani” value [3] of the same sequence?
A: 0.8

Q: And the “Binding of serum 6 to looped/cyclic peptides of protein X5 of SARS-CoV Urbani” value [3]?
A: 0.2

Q: And the “Binding of serum 37 to linear peptides of protein X5 of SARS-CoV Urbani” value [3]?
A: 0.7

Q: What about the “Binding of serum 37 to looped/cyclic peptides of protein X5 of SARS-CoV Urbani” value [3] of the same sequence?
A: 0.6

Q: What about the “Binding of serum 62 to linear peptides of protein X5 of SARS-CoV Urbani” value [3] of the same sequence?
A: 0.8

Q: And the “Binding of serum 62 to looped/cyclic peptides of protein X5 of SARS-CoV Urbani” value [3]?
A: 0.6

Q: And the “Binding of serum London to linear peptides of protein X5 of SARS-CoV Urbani” value [3]?
A: 0.8

Q: What about the “Binding of serum London to looped/cyclic peptides of protein X5 of SARS-CoV Urbani” value [3] of the same sequence?
A: 0.3

Q: And the “Binding of serum SARS-green to linear peptides of protein X5 of SARS-CoV Urbani” value [3]?
A: 0.7

Q: What about the “Binding of serum SARS-green to looped/cyclic peptides of protein X5 of SARS-CoV Urbani” value [3] of the same sequence?
A: 0.3

Q: What about the “Binding of serum SARS-yellow to linear peptides of protein X5 of SARS-CoV Urbani” value [3] of the same sequence?
A: 0.3

Q: And the “Binding of serum SARS-yellow to looped/cyclic peptides of protein X5 of SARS-CoV Urbani” value [3]?
A: 0.3

Q: How did the “Binding of Control Serum Blood-Bank to Looped peptides” value [1] turn out when VSPKLFIRQEEVQQE was run?
A: 0.4

Q: What about the “Binding of Control serum Blood-bank to linear peptides” value [1] of the same sequence?
A: 0.5

Q: What about the “Binding of Control serum LUMC to linear peptides” value [1] of the same sequence?
A: 0.4

Q: And the “Binding of Control serum LUMC to looped peptides” value [1]?
A: 0.7

Q: What about the “Rabbit serum linear peptides” value [2] of the same sequence?
A: 0.4

Q: And the “Rabbit serum looped peptides” value [2]?
A: 0.3

Q: What about the “Binding of serum 1a to linear peptides of protein X4 of SARS-CoV Urbani” value [3] of the same sequence?
A: 0.7

Q: And the “Binding of serum 1a to looped/cyclic peptides of protein X4 of SARS-CoV Urbani” value [3]?
A: 0.6

Q: And the “Binding of serum 1b to linear peptides of protein X4 of SARS-CoV Urbani” value [3]?
A: 0.5

Q: What about the “Binding of serum 1b to looped/cyclic peptides of protein X4 of SARS-CoV Urbani” value [3] of the same sequence?
A: 1.0

Q: And the “Binding of serum 2 to linear peptides of protein X4 of SARS-CoV Urbani” value [3]?
A: 0.3

Q: What about the “Binding of serum 2 to looped/cyclic peptides of protein X4 of SARS-CoV Urbani” value [3] of the same sequence?
A: 0.8

Q: And the “Binding of serum 6 to linear peptides of protein X4 of SARS-CoV Urbani” value [3]?
A: 0.3

Q: What about the “Binding of serum 6 to looped/cyclic peptides of protein X4 of SARS-CoV Urbani” value [3] of the same sequence?
A: 0.4

Q: What about the “Binding of serum 37 to linear peptides of protein X4 of SARS-CoV Urbani” value [3] of the same sequence?
A: 0.7

Q: And the “Binding of serum 37 to looped/cyclic peptides of protein X4 of SARS-CoV Urbani” value [3]?
A: 0.9

Q: And the “Binding of serum 62 to linear peptides of protein X4 of SARS-CoV Urbani” value [3]?
A: 0.7

Q: What about the “Binding of serum 62 to looped/cyclic peptides of protein X4 of SARS-CoV Urbani” value [3] of the same sequence?
A: 0.8

Q: And the “Binding of serum London to linear peptides of protein X4 of SARS-CoV Urbani” value [3]?
A: 0.8

Q: What about the “Binding of serum London to looped/cyclic peptides of protein X4 of SARS-CoV Urbani” value [3] of the same sequence?
A: 0.6

Q: And the “Binding of serum SARS-green to linear peptides of protein X4 of SARS-CoV Urbani” value [3]?
A: 0.6

Q: What about the “Binding of serum SARS-green to looped/cyclic peptides of protein X4 of SARS-CoV Urbani” value [3] of the same sequence?
A: 1.2

Q: What about the “Binding of serum SARS-yellow to linear peptides of protein X4 of SARS-CoV Urbani” value [3] of the same sequence?
A: 0.3

Q: And the “Binding of serum SARS-yellow to looped/cyclic peptides of protein X4 of SARS-CoV Urbani” value [3]?
A: 0.5

Q: With VSTNLCTHSFRKKQV as the sequence, how does the “Binding of Control Serum Blood-Bank to Looped peptides” value [1] read?
A: 0.5

Q: And the “Binding of Control serum Blood-bank to linear peptides” value [1]?
A: 0.8

Q: What about the “Binding of Control serum LUMC to linear peptides” value [1] of the same sequence?
A: 0.6

Q: And the “Binding of Control serum LUMC to looped peptides” value [1]?
A: 0.7

Q: What about the “Binding of a rabbit serum to linear peptides” value [2] of the same sequence?
A: 0.3

Q: What about the “Binding of a rabbit serum to looped peptides” value [2] of the same sequence?
A: 0.2

Q: What about the “Binding of serum 1a to looped/cyclic peptides of protein X2 of SARS-CoV Urbani” value [3] of the same sequence?
A: 0.5

Q: And the “Binding of serum 1b to looped/cyclic peptides of protein X2 of SARS-CoV Urbani” value [3]?
A: 0.3

Q: And the “Binding of serum 2 to looped/cyclic peptides of protein X2 of SARS-CoV Urbani” value [3]?
A: 0.6

Q: And the “Binding of serum 6 to looped/cyclic peptides of protein X2 of SARS-CoV Urbani” value [3]?
A: 0.5

Q: And the “Binding of serum 37 to looped/cyclic peptides of protein X2 of SARS-CoV Urbani” value [3]?
A: 0.5

Q: What about the “Binding of serum 62 to looped/cyclic peptides of protein X2 of SARS-CoV Urbani” value [3] of the same sequence?
A: 0.6

Q: What about the “Binding of serum London to looped/cyclic peptides of protein X2 of SARS-CoV Urbani” value [3] of the same sequence?
A: 0.1

Q: And the “Binding of serum SARS-green to looped/cyclic peptides of protein X2 of SARS-CoV Urbani” value [3]?
A: 0.3

Q: What about the “Binding of serum SARS-yellow to looped/cyclic peptides of protein X2 of SARS-CoV Urbani” value [3] of the same sequence?
A: 0.4

Q: What about the “Recognition of the peptide by sera of SARS-CoV infected individuals, and form (linear, looped/cyclic) in which it is recognized” value [3] of the same sequence?
A: recognized in linear form
